From article PMC3914206

Tests used:
Assay type in all cases: binding
Set-up in all cases: KINOMEscan: ABL1(F317L)-phosphorylated / KINOMEscan: ABL1(H396P)-nonphosphorylated / KINOMEscan: ABL1(H396P)-phosphorylated / KINOMEscan: ABL1(M351T)-phosphorylated / KINOMEscan: ABL1(T315I)-phosphorylated / KINOMEscan: ABL1-nonphosphorylated / KINOMEscan: ABL1-phosphorylated / KINOMEscan: ACVR2A / KINOMEscan: ACVR2B / KINOMEscan: ADCK3 / KINOMEscan: ADCK4 / KINOMEscan: AKT1 / KINOMEscan: AKT3 / KINOMEscan: ALK / KINOMEscan: ARK5 / KINOMEscan: AURKA / KINOMEscan: AURKC / KINOMEscan: BIKE / KINOMEscan: BMPR1A / KINOMEscan: BMPR1B / KINOMEscan: BMX / KINOMEscan: BRK / KINOMEscan: BRSK1 / KINOMEscan: BRSK2 / KINOMEscan: CAMK1 / KINOMEscan: CAMK1D / KINOMEscan: CAMK1G / KINOMEscan: CAMK2A / KINOMEscan: CAMK2B / KINOMEscan: AAK1 / KINOMEscan: CAMK2D / KINOMEscan: CAMK2G / KINOMEscan: ABL1(F317I)-nonphosphorylated / KINOMEscan: ABL1(F317I)-phosphorylated / KINOMEscan: ABL1(F317L)-nonphosphorylated: unit: % Ctrl
panel of 442 kinases [1] = biological target: T1, panel of 442 kinases (Homo sapiens, UniProt P04629); conditions: kinase TRKA; compound concentration 10 µM
T1 construct: purchased KINOMEscan
T1 sequence (P04629 33-796): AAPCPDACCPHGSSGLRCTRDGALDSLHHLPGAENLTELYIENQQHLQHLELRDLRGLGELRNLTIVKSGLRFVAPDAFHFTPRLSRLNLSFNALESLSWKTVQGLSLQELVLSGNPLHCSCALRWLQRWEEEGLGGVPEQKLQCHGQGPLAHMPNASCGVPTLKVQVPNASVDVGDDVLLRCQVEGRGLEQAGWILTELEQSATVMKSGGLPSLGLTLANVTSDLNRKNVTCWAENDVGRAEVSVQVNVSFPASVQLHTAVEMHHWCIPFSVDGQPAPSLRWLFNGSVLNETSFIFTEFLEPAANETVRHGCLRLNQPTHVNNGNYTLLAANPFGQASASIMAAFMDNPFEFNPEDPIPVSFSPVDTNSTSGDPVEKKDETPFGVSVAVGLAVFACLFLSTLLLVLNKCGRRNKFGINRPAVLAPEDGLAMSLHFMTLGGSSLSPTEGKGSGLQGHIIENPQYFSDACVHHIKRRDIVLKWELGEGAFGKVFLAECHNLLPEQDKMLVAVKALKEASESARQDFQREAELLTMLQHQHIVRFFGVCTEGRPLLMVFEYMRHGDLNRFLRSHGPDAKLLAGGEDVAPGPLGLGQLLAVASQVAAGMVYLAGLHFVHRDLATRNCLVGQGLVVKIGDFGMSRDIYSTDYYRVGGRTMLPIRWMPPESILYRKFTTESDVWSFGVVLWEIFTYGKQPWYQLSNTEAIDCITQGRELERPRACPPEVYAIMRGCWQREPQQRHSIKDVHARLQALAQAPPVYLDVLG
Excerpt: (§1) We assessed the selectivity of members of this scaffold using the KINOMEscan methodology across a near comprehensive panel of 442 kinases [[18,27]].

panel of 442 kinases [2] = biological target: T2, panel of 442 kinases (Homo sapiens, UniProt P08631); conditions: Compound Concentration 10 µM
T2 construct: purchased KINOMEscan
T2 sequence (P08631 whole entry): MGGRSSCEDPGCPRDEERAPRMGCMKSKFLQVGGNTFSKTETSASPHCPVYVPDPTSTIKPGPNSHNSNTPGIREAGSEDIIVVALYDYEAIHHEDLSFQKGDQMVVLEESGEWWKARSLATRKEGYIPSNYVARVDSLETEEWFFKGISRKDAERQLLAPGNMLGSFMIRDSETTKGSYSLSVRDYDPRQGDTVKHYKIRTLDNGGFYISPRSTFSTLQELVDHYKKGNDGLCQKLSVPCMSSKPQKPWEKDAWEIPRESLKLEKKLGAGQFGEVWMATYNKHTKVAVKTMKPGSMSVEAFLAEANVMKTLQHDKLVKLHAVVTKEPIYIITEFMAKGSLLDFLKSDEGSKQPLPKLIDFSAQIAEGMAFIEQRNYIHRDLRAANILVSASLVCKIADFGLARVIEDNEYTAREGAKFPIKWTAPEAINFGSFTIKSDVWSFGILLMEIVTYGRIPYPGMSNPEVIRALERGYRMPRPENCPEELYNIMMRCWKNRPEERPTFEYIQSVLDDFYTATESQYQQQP
Excerpt: as §1

panel of 442 kinases [3] = biological target: T3, panel of 442 kinases (Homo sapiens, UniProt P21860); conditions: Compound Concentration 10 µM
T3 construct: purchased KINOMEscan
T3 sequence (P21860 20-1342): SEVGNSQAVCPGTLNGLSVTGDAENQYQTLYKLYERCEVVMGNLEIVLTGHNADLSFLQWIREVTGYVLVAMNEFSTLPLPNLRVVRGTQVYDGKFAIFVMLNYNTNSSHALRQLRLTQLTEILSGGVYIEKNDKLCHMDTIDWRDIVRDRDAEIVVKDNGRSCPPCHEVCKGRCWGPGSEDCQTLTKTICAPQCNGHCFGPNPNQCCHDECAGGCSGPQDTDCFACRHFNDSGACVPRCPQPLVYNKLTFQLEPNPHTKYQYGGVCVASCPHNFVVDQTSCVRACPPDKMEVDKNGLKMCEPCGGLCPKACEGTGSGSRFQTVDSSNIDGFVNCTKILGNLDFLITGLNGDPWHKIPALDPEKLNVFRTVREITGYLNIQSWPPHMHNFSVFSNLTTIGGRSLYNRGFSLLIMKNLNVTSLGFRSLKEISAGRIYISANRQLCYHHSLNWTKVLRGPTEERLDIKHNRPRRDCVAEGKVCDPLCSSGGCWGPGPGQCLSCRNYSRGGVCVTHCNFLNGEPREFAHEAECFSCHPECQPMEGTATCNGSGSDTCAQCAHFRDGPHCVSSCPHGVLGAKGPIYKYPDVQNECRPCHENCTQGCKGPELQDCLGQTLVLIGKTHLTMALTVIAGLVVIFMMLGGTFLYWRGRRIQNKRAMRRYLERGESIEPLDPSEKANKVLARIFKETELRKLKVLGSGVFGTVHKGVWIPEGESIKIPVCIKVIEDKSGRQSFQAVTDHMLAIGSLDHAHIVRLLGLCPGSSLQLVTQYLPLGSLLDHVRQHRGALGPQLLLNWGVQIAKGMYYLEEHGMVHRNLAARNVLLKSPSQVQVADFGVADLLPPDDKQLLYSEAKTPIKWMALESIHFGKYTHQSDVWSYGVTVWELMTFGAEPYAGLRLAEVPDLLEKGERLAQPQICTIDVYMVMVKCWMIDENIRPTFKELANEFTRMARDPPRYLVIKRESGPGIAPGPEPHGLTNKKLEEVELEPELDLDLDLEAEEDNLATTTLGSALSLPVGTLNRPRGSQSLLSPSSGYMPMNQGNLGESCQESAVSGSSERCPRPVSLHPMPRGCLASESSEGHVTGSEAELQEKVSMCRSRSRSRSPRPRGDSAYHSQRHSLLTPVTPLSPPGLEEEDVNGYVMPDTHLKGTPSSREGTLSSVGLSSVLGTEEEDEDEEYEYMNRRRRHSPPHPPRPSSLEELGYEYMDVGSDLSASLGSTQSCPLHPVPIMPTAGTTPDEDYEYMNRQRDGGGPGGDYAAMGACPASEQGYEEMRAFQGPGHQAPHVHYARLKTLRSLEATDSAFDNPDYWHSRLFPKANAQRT
Excerpt: as §1

panel of 442 kinases [4] = biological target: T4, panel of 442 kinases (Homo sapiens, UniProt Q8IU85); conditions: Compound Concentration 10 µM
T4 construct: purchased KINOMEscan
T4 sequence (Q8IU85 whole entry): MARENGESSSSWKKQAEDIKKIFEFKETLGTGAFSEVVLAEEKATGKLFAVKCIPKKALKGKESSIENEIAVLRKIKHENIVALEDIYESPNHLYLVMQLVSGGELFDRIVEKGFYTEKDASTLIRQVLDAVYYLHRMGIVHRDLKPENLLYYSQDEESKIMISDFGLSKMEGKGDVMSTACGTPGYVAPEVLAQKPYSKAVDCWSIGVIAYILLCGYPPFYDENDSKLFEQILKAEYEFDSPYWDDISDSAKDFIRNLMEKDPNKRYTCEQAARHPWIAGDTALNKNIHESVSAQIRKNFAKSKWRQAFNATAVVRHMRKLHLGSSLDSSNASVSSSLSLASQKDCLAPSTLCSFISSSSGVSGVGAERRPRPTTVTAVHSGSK
Excerpt: as §1

SMILES	% Ctrl, TRKA (panel of 442 kinases [1]) [% Ctrl]	KINOMEscan: HCK (panel of 442 kinases [2])	KINOMEscan: ERBB3 (panel of 442 kinases [3])	KINOMEscan: CAMK1D (panel of 442 kinases [4])
COc1cc(C(=O)N2CCC(N3CCN(C)CC3)CC2)ccc1Nc1ncc2c(n1)N(C1CCCC1)c1ccccc1C(=O)N2C [Compound 25, 11-cyclopentyl-2-((2-methoxy-4-(4-(4-methylpiperazin-1-yl)piperidine-1-carbonyl)phenyl)amino)-5-methyl-5H-benzo[e]pyrimido[5,4-b][1,4]diazepin-6(11H)-one]	78	97	100	77
CCOc1cc(C(=O)N2CCC(N3CCN(C)CC3)CC2)ccc1Nc1ncc2c(n1)N(C1CCCC1)c1ccccc1C(=O)N2C [Compound 26]	100	100	100	61
COc1cc(C(=O)N2CCC(N3CCN(C)CC3)CC2)ccc1Nc1ncc2c(n1)N1CCc3cccc(c31)C(=O)N2C [Compound 24]	93			
COc1cc(C(=O)N2CCC(N3CCN(C)CC3)CC2)ccc1Nc1ncc2c(n1)N(C)c1ccccc1C(=O)N2C [15 (LRRK2-IN-1)]	69	100	100	69
